Assay results reported in paper PMC5861040, “Identification of di-substituted ureas that prevent growth of trypanosomes through inhibition of translation initiation” (Scientific Reports, 2018).
Entries after “also recorded” stand apart in the source; their conditions may differ.

What was measured:
heme regulated kinase = test system: heme regulated kinase; parameters: method as in PMID 21765405; conditions: cited from earlier work
T. cruzi epimastigotes [1] = assay: Alamar Blue viability assay of T. cruzi epimastigotes; type: cell-based, Trypanosoma cruzi (Y strain); conditions: Trypanosoma cruzi, 72 h, epimastigotes incubated 3 days with compound; for EC50: concentration inhibiting 50% of multiplication; for EC90: concentration inhibiting 90% of multiplication
Description: T. cruzi epimastigotes were incubated in culture medium for three days with 25 different compounds at 10 µM.
T. cruzi epimastigotes at 1 × 10^7/mL in 50 µL were incubated in 96-wells plates with the same volume of compounds pre-diluted in 50 µL of LIT medium for 48 hours at 28 °C. LLC-MK2 cells (3 × 10^3) in 100 µL of medium were added to 96 well plates. After 5 hours, the medium was replaced by fresh medium containing serial dilutions of test compounds and incubations proceeded for 72 hours at 37 °C. In both cases, 10 µL of AlamarBlue (Thermo Fisher Scientific) was added and the plates were further incubated for 18 hours at 28 °C for epimastigotes and 4 hours at 37 °C for mammalian cells. Absorbance at 570 nm and 600 nm were measured by using a SpectraMax M3 (Molecular Devices). The differences between absorbance at 570 nm and 600 nm for each well was normalized against a blank value for medium without parasites and lysed cells. Alternatively, L6 rat myoblast cell death and lysis were determined using the cytotoxicity Detection Kit Plus LDH Version 6 (Roche) after 72 hours incubation with the indicated compounds using the manufacturer protocol. […] Each compound was tested in triplicates in at least two independent experiments, with exceptions appointed on Table 1. Selective index was estimated by the ratio between LLC-MK2 EC50 and epimastigotes EC50 on Table 1.

T. cruzi epimastigotes [2] = assay: T. cruzi epimastigote multiplication in culture (parasite counting); type: cell-based, Trypanosoma cruzi (Y strain)
[3] = test system: T. brucei procyclic form (PCF); assay: T. brucei procyclic form multiplication (parasite counting); type: cell-based, Trypanosoma brucei; conditions: 48 hours at 28 °C, Fig. 1B
mammalian eIF2α kinases = test system: mammalian eIF2α kinases; parameters: method as in PMID 21765405, PMID 28590739; conditions: cited from earlier work

Row | Compound | activity on heme regulated kinase leading to eIF2α phosphorylation (heme regulated kinase) | EC50 (T. cruzi epimastigotes [1]) | EC90 (T. cruzi epimastigotes [1]) | effect on T. cruzi epimastigote multiplication at 10 µM (T. cruzi epimastigotes [2]; 10 µM, three days in culture medium) | inhibition of epimastigote multiplication (counting) (T. cruzi epimastigotes [2]; all tested concentrations, 48 hours, Fig. 1A) | multiplication of T. brucei PCF [3] | activation of mammalian eIF2α kinases (mammalian eIF2α kinases)
1 | O=C(Nc1ccc(Cl)c(Cl)c1)Nc1ccc2nnsc2c1 [BTdCPU, 1-(benzo [d][1,2,3]thiadiazol-6-yl)-3-(3,4-dichlorophenyl) urea] | activator | – | – | – | – | – | –
2 | O=C(Cn1ccnc1[N+](=O)[O-])NCc1ccccc1 [BZN, Benznidazole] | – | 211 ± 3 µM | 960 ± 25 µM | – | – | – | –
3 | O=C(Nc1ccc(Cl)c(Cl)c1)Nc1cc([N+](=O)[O-])ccc1Cl [NCPdCPU, 1-(2-chloro-5-nitrophenyl)-3-(3,4-dichlorophenyl) urea] | inactive | > 10 µM | > 10 µM | unable to produce any visible effect; also recorded: no activity | minimal inhibition | not | failed to activate
